Results from patent US8063065B2, “Azaindazole compounds as CCR1 receptor antagonists” (Boehringer Ingelheim International GmbH, priority 2008, dated 2011).

The compounds below were run against T1, CCR1 (Homo sapiens, UniProt P32246) (assay: Method B: calcium flux in CCR1 transfected cells (Calcium 4 dye, […] FDSS6000), block of the CCR1/MIP-1α interaction). Conditions: Method B: Calcium 4 dye, MIP-1alpha at EC80.
T1 sequence (P32246 1-355): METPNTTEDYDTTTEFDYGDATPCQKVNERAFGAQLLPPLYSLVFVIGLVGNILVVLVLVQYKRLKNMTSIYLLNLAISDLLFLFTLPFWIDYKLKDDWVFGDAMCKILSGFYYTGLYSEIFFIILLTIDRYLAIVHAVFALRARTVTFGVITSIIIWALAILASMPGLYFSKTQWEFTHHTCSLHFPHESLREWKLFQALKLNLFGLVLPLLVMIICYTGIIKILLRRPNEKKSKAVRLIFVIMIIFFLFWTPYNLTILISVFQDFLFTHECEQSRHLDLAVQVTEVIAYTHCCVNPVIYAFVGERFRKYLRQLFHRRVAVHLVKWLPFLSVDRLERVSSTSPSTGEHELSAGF
Type: cell-based
Protocol: Compounds are assessed for the ability to block the interaction of CCR1 and MIP-1α in a functional cellular assay measuring calcium flux in CCR1 transfected cells.
Method B: Non-adherent cells purchased from Chemicon Corporation (HTS005C), stably expressing recombinant CCR1 and G-alpha-16 are grown in RPMI 1640 medium (Mediatech 10-080-CM) supplemented with 10% FBS, 0.4 mg/mL Geneticin and penicillin/streptomycin. On the day of the assay, the cells are loaded with Calcium 4 dye (Molecular Devices R7448) with Probenecid (Invitrogen P346400) at 8E5 cells/mL for 1 hour at room temperature. After 1 hour, they are seeded in a 384-well tissue culture-treated plate at a density of 20,000 cells/well. Appropriately diluted test compound is added to the well to achieve a top concentration of 3,000 nM (diluted 4-fold with 10 doses total). The final concentration of DMSO is 1%. The buffer is HBSS (Invitrogen 14025) with 20 mM HEPES at pH 7.4. The cells incubate 30 minutes at 37 C and then 30 minutes at room temperature. The plates are transferred to the […] FDSS6000 where MIP-1alpha in 1% BSA is added at the EC80 final concentration. All plates must be read within 4 hours of the start of dye-loading. Wells+/−MIP-1alpha containing diluted DMSO instead of compound serve as the controls. Data are analyzed using Activity Base software.
`CS(=O)(=O)c1cc([C@H](CC(O)CO)NC(=O)c2cncc3c2cnn3-c2ccc(F)cc2)ccn1` (single isomer, unassigned) showed an IC50 of 0.011 µM.
For `CC(C)(O)CNS(=O)(=O)c1ccc(CNC(=O)c2cncc3c2cnn3-c2ccc(F)cc2)cc1` [1-(4-Fluorophenyl)-1H-pyrazolo[3,4-c]pyridine-4-carboxylic acid 4-(2-hydroxy-2-methyl-propylsulfamoyl)-benzylamide], the IC50 was 0.001 µM.
With `CS(=O)(=O)n1ccc2c(CNC(=O)c3cncc4c3cnn4-c3ccc(F)cc3)ccnc21` [1-(4-Fluorophenyl)-1H-pyrazolo[3,4-c]pyridine-4-carboxylic acid (1-methanesulfonyl-1H-pyrrolo[2,3-b]pyridin-4-ylmethyl)-amide] the IC50 was 0.003 µM.
Compound `CS(=O)(=O)c1cc(CNC(=O)c2cncc3c2cnn3-c2ccc(F)cc2)cc(Br)n1` [1-(4-Fluorophenyl)-1H-pyrazolo[3,4-c]pyridine-4-carboxylic acid (2-bromo-6-methanesulfonyl-pyridin-4-ylmethyl)-amide] has an IC50 of 0.001 µM.
`O=C(NCc1cnc(Br)s1)c1cncc2c1cnn2-c1ccc(F)cc1` [1-(4-Fluorophenyl)-1H-pyrazolo[3,4-c]pyridine-4-carboxylic acid (2-bromo-thiazol-5-ylmethyl)-amide] showed an IC50 of 0.025 µM.
For `COc1cc(CNC(=O)c2cncc3c2cnn3-c2ccc(F)cc2)cc(S(C)(=O)=O)n1` [1-(4-Fluorophenyl)-1H-pyrazolo[3,4-c]pyridine-4-carboxylic acid (2-methanesulfonyl-6-methoxy-pyridin-4-ylmethyl)-amide], the IC50 was 0.001 µM.
`Cc1cc(CNC(=O)c2cncc3c2cnn3-c2ccc(F)cc2)cc(S(C)(=O)=O)n1` [1-(4-Fluorophenyl)-1H-pyrazolo[3,4-c]pyridine-4-carboxylic acid (2-methanesulfonyl-6-methyl-pyridin-4-ylmethyl)-amide] was tested, and the IC50 was 0.005 µM.
`CS(=O)(=O)c1nc(CNC(=O)c2cncc3c2cnn3-c2ccc(F)cc2)cs1` [1-(4-Fluorophenyl)-1H-pyrazolo[3,4-c]pyridine-4-carboxylic acid (2-methanesulfonyl-thiazol-4-ylmethyl)-amide] was tested, and the IC50 was 0.029 µM.
In the case of `CS(=O)(=O)c1ncc(CNC(=O)c2cncc3c2cnn3-c2ccc(F)cc2)s1` [1-(4-Fluorophenyl)-1H-pyrazolo[3,4-c]pyridine-4-carboxylic acid (2-methanesulfonyl-thiazol-5-ylmethyl)-amide], the IC50 is reported as 0.017 µM.
Work on `O=C(NCc1cnc(N2CCOCC2)nc1)c1cncc2c1cnn2-c1ccc(F)cc1` [1-(4-Fluorophenyl)-1H-pyrazolo[3,4-c]pyridine-4-carboxylic acid (2-morpholin-4-yl-pyrimidin-5-ylmethyl)-amide] yielded an IC50 of 0.008 µM.
`O=C(NCc1cnc(N2CCOCC2)s1)c1cncc2c1cnn2-c1ccc(F)cc1` [1-(4-Fluorophenyl)-1H-pyrazolo[3,4-c]pyridine-4-carboxylic acid (2-morpholin-4-yl-thiazol-5-ylmethyl)-amide] was tested, and the IC50 was 0.016 µM.
With `O=C(NCc1cc(Br)cs1)c1cncc2c1cnn2-c1ccc(F)cc1` [1-(4-Fluorophenyl)-1H-pyrazolo[3,4-c]pyridine-4-carboxylic acid (4-bromo-thiophen-2-ylmethyl)-amide] the IC50 was 0.007 µM.
With `CS(=O)(=O)c1csc(CNC(=O)c2cncc3c2cnn3-c2ccc(F)cc2)c1` [1-(4-Fluorophenyl)-1H-pyrazolo[3,4-c]pyridine-4-carboxylic acid (4-methanesulfonyl-thiophen-2-ylmethyl)-amide] the IC50 was 0.005 µM.
`O=C(NCc1ccc(Br)s1)c1cncc2c1cnn2-c1ccc(F)cc1` [1-(4-Fluorophenyl)-1H-pyrazolo[3,4-c]pyridine-4-carboxylic acid (5-bromo-thiophen-2-ylmethyl)-amide] showed an IC50 of 0.019 µM.
`CS(=O)(=O)c1ccc(CNC(=O)c2cncc3c2cnn3-c2ccc(F)cc2)s1` [1-(4-Fluorophenyl)-1H-pyrazolo[3,4-c]pyridine-4-carboxylic acid (5-methanesulfonyl-thiophen-2-ylmethyl)-amide] gave an IC50 of 0.005 µM.
In the case of `CS(=O)(=O)c1cc(CNC(=O)c2cncc3c2cnn3-c2ccc(F)cc2)cc(=O)[nH]1` [1-(4-Fluorophenyl)-1H-pyrazolo[3,4-c]pyridine-4-carboxylic acid (6-methanesulfonyl-2-oxo-1,2-dihydropyridin-4-ylmethyl)-amide], the IC50 is reported as 0.017 µM.
In the case of `CC[C@H](NC(=O)c1cncc2c1cnn2-c1ccc(F)cc1)c1ccccn1` [1-(4-Fluorophenyl)-1H-pyrazolo[3,4-c]pyridine-4-carboxylic acid ((S)-1-pyridin-2-yl-propyl)-amide], the IC50 is reported as 0.023 µM.
In the case of `C=CC[C@H](NC(=O)c1cncc2c1cnn2-c1ccc(F)cc1)c1ccncc1` [1-(4-Fluorophenyl)-1H-pyrazolo[3,4-c]pyridine-4-carboxylic acid ((S)-1-pyridin-4-yl-but-3-enyl)-amide], the IC50 is reported as 0.032 µM.
`CC[C@H](NC(=O)c1cncc2c1cnn2-c1ccc(F)cc1)c1ccncc1` [1-(4-Fluorophenyl)-1H-pyrazolo[3,4-c]pyridine-4-carboxylic acid ((S)-1-pyridin-4-yl-propyl)-amide] gave an IC50 of 0.006 µM.
In the case of `CC[C@H](NC(=O)c1cncc2c1cnn2-c1ccc(F)cc1)c1ccnc(N(C)CCO)c1` [1-(4-Fluorophenyl)-1H-pyrazolo[3,4-c]pyridine-4-carboxylic acid ((S)-1-{2-[(2-hydroxy-ethyl)-methyl-amino]-pyridin-4-yl}-propyl)-amide], the IC50 is reported as 0.002 µM.
With `CC[C@H](NC(=O)c1cncc2c1cnn2-c1ccc(F)cc1)c1ccnc(N(C)CCOC)c1` [1-(4-Fluorophenyl)-1H-pyrazolo[3,4-c]pyridine-4-carboxylic acid ((S)-1-{2-[(2-methoxy-ethyl)-methyl-amino]-pyridin-4-yl}-propyl)-amide] the IC50 was 0.001 µM.
`CCC(NC(=O)c1cncc2c1cnn2-c1ccc(F)cc1)C1CCN(C(C)=O)CC1` (centres unmarked) [1-(4-Fluorophenyl)-1H-pyrazolo[3,4-c]pyridine-4-carboxylic acid [1-(1-acetyl-piperidin-4-yl)-propyl]-amide] showed an IC50 of 0.01 µM.
For `CCC(NC(=O)c1cncc2c1cnn2-c1ccc(F)cc1)C1CCN(C(N)=O)CC1` (centres unmarked) [1-(4-Fluorophenyl)-1H-pyrazolo[3,4-c]pyridine-4-carboxylic acid [1-(1-carbamoyl-piperidin-4-yl)-propyl]-amide], the IC50 was 0.016 µM.
Work on `CCC(NC(=O)c1cncc2c1cnn2-c1ccc(F)cc1)C1CCCN(S(C)(=O)=O)C1` (centres unmarked) [1-(4-Fluorophenyl)-1H-pyrazolo[3,4-c]pyridine-4-carboxylic acid [1-(1-methanesulfonyl-piperidin-3-yl)-propyl]-amide] yielded an IC50 of 0.002 µM.
Compound `CCC(NC(=O)c1cncc2c1cnn2-c1ccc(F)cc1)C1CCN(S(C)(=O)=O)CC1` (centres unmarked) [1-(4-Fluorophenyl)-1H-pyrazolo[3,4-c]pyridine-4-carboxylic acid [1-(1-methanesulfonyl-piperidin-4-yl)-propyl]-amide] has an IC50 of 0.002 µM.
`CCC(CC)(NC(=O)c1cncc2c1cnn2-c1ccc(F)cc1)c1ccnc(Br)c1` [1-(4-Fluorophenyl)-1H-pyrazolo[3,4-c]pyridine-4-carboxylic acid [1-(2-bromo-pyridin-4-yl)-1-ethyl-propyl]-amide] was tested, and the IC50 was 0.029 µM.
Work on `CC(C)(NC(=O)c1cncc2c1cnn2-c1ccc(F)cc1)c1ccnc(Br)c1` [1-(4-Fluorophenyl)-1H-pyrazolo[3,4-c]pyridine-4-carboxylic acid [1-(2-bromo-pyridin-4-yl)-1-methyl-ethyl]-amide] yielded an IC50 of 0.014 µM.
In the case of `CCC(C)(NC(=O)c1cncc2c1cnn2-c1ccc(F)cc1)c1ccnc(Br)c1` (centres unmarked) [1-(4-Fluorophenyl)-1H-pyrazolo[3,4-c]pyridine-4-carboxylic acid [1-(2-bromo-pyridin-4-yl)-1-methyl-propyl]-amide], the IC50 is reported as 0.011 µM.
Compound `CCC(C)(NC(=O)c1cncc2c1cnn2-c1ccc(F)cc1)c1ccnc(S(C)(=O)=O)c1` (centres unmarked) [1-(4-Fluorophenyl)-1H-pyrazolo[3,4-c]pyridine-4-carboxylic acid [1-(2-methanesulfonyl-pyridin-4-yl)-1-methyl-propyl]-amide] has an IC50 of 0.006 µM.
In the case of `CCC(NC(=O)c1cncc2c1cnn2-c1ccc(F)cc1)c1nc(C(N)=O)c(C)o1` (centres unmarked) [1-(4-Fluorophenyl)-1H-pyrazolo[3,4-c]pyridine-4-carboxylic acid [1-(4-carbamoyl-5-methyl-oxazol-2-yl)-propyl]-amide], the IC50 is reported as 0.026 µM.
`CCC(NC(=O)c1cncc2c1cnn2-c1ccc(F)cc1)c1nc(C(N)=O)co1` (centres unmarked) [1-(4-Fluorophenyl)-1H-pyrazolo[3,4-c]pyridine-4-carboxylic acid [1-(4-carbamoyl-oxazol-2-yl)-propyl]-amide] showed an IC50 of 0.036 µM.
`CCC(NC(=O)c1cncc2c1cnn2-c1ccc(F)cc1)c1nc(C(=O)NC)co1` (centres unmarked) [1-(4-Fluorophenyl)-1H-pyrazolo[3,4-c]pyridine-4-carboxylic acid [1-(4-methylcarbamoyl-oxazol-2-yl)-propyl]-amide] gave an IC50 of 0.016 µM.
